System: male mice
Test: Analysis of intestinal injury by 12 Gy of local abdominal irradiation
Type: in vivo
Settings: 12 Gy local abdominal irradiation
Experimental: 44 male mice were divided into 4 groups: • 1) TAI group, 10 mice; • 2) hypoxanthine group, 10 mice; • 3) IVIg group, 12 mice; • 4) IVIg+hypoxanthine group, 12 mice;
TAI group received only local abdominal irradiation.
Hypoxanthine was orally administered to the mice in hypoxanthine group 30 min before irradiation, followed by gavage through mouth every two days. The dose of hypoxanthine for each gavage was 50 mg/kg body weight.

[1] = hypoxanthine vs TAI group (FIG. 6), IVIg+hypoxanthine vs IVIg group (FIG. 8)

O=c1[nH]cnc2nc[nH]c12 [hypoxanthine]
no difference: length of the large intestine (hypoxanthine vs TAI group (FIG. 5), IVIg+hypoxanthine vs IVIg group (FIG. 7)) | level of inflammatory factor IL-6 in the small intestine [1] | level of inflammatory factor TNFα in the small intestine [1]

Reference: patent US12186323B2, “Combination drugs of hypoxanthine and human immunoglobulin” (Institute of Blood Transfusion, Chinese Academy of Medical …, priority 2021, dated 2025)
